Laboratory results: US10611732B2, “HIV replication inhibiting pyrimidines” (Janssen Pharmaceutica NV, priority 2001, dated 2020)

Assays:
[1] = system: HIV; assay: microbe, parasite or virus in culture; conditions: for IC50: Human immunodeficiency virus 1, MT4, read-out: pIC50 (−log IC50), HIV-infected MT-4 cells (converted); for IC50 / pIC50 (−log IC50): dose achieving 50% protection, MTT, OD 540 nm; for pSI (pCC50-pIC50): selectivity index, ratio of CC50 to IC50, as log difference; for pIC50 (−log IC50): HIV-infected MT-4 cells
Protocol: (§1) A rapid, sensitive and automated assay procedure was used for the in vitro evaluation of anti-HIV agents. An […] T4-cell line, MT-4, which was previously shown (Koyanagi et al., Int. J Cancer, 36, 445-451, 1985) to be highly susceptible to and permissive for HIV infection, served as the target cell line. Inhibition of the HIV-induced cytopathic effect was used as the end point. The viability of both HIV- and mock-infected cells was assessed spectrophotometrically via the in situ reduction of 3-(4,5-dimethylthiazol-2-yl)-2,5-diphenyltetrazolium bromide (MTT). The 50% cytotoxic concentration (CC50 in M) was defined as the concentration of compound that reduced the absorbance of the mock-infected control sample by 50%. The percent protection achieved by the compound in HIV-infected cells was calculated by the following formula:
(§2) [formula] whereby (ODT)HIV is the optical density measured with a given concentration of the test compound in HIV-infected cells; (ODC)HIV is the optical density measured for the control untreated HIV-infected cells; (ODC)MOCK is the optical density measured for the control untreated mock-infected cells; all optical density values were determined at 540 nm. The dose achieving 50% protection according to the above formula was defined as the 50% inhibitory concentration (IC50 in M). The ratio of CC50 to IC50 was defined as the selectivity index (SI).
(§3) Table 6 lists the pIC50 (−log IC50), pCC50 (−log CC50) and pSI (pCC50-pIC50) values for the compounds of formula (I).

[2] = cytotoxicity in mock-infected MT-4 cells (MTT); conditions: human, mock-infected MT-4 cells
Protocol: as §1, §2, §3

[3] = system: mock-infected MT-4 cells; assay: cytotoxicity in mock-infected MT-4 cells (MTT)
Protocol: as §1, §2, §3

Structure (SMILES) | melting point [°C] | IC50 [1] [nM] | pSI (pCC50-pIC50) [1] | CC50 [2] [nM] | pCC50 (−log CC50) [3] [M] | pIC50 (−log IC50) [1]
Cc1cc(/C=C\Cl)cc(C)c1Nc1ccnc(Nc2ccc(C#N)cc2)n1 | 250 | – | – | – | – | –
Cc1cc(C=C(Br)Br)cc(C)c1Nc1ccnc(Nc2ccc(C#N)cc2)n1 | 223 | – | – | – | – | –
CCCCN(C)C(=O)/C=C/c1cc(C)c(Oc2ccnc(Nc3ccc(C#N)cc3)n2)c(C)c1 | 212 | – | – | – | – | –
Cc1ccc(N(C)C)c(C)c1Nc1ccnc(Nc2ccc(C#N)cc2)n1 | 132 | – | – | – | – | –
Cc1cc(/C=C/c2cccnc2)cc(C)c1Nc1ccnc(Nc2ccc(C#N)cc2)n1 | 120 | – | – | – | – | –
Cc1cc(C(=O)CC#N)cc(C)c1Nc1ccnc(Nc2ccc(C#N)cc2)n1 | 150 | – | – | – | – | –
CCOCc1ccc(Oc2ccnc(Nc3ccc(C#N)cc3)n2)c(C)c1 [Compound 105] | 140 | 63.1 | <−3.2 | – | – | –
Cc1cc(/C=C(/C#N)C(=O)C(C)(C)C)cc(C)c1Nc1ccnc(Nc2ccc(C#N)cc2)n1 [Compound 106] | 193 | 20 | −2.5 | – | – | –
Cc1cc(/C=C(/F)C#N)cc(C)c1Oc1ccnc(Nc2ccc(C#N)cc2)n1 [Compound 110] | 254 | 2.51 | −4.3 | 50100 | – | –
Cc1cc(/C=C/C(=O)N(C)C)cc(C)c1Nc1ccnc(Nc2ccc(C#N)cc2)n1 [Compound 112] | > 264 | 0.794 | −4.2 | – | – | –
Cc1cc(/C=C/C(=O)N(C)CCC#N)cc(C)c1Nc1ccnc(Nc2ccc(C#N)cc2)n1 [Compound 114] | 168 | 2.51 | −3.5 | – | – | –
Cc1cc(-c2ccc(C#N)o2)cc(C)c1Nc1ccnc(Nc2ccc(C#N)cc2)n1 [Compound 126] | > 260 | 3.98 | −3.5 | – | – | –
CC(C#N)=Cc1ccc(Oc2ccnc(Nc3ccc(C#N)cc3)n2)c(C)c1 [Compound 231] | – | – | <−5.2 | – | <4.0 | 9.2
CC(=CC#N)c1ccc(Oc2ccnc(Nc3ccc(C#N)cc3)n2)c(C)c1 [Compound 232] | – | – | <−4.4 | – | <4.0 | 8.4
CC(C#N)=Cc1cc(C)c(Nc2ccnc(Nc3ccc(C#N)cc3)n2)c(Cl)c1 [Compound 233] | – | – | −3.6 | – | 5.7 | 9.3
Cc1cc(CCC#N)ccc1Oc1ccnc(Nc2ccc(C#N)cc2)n1 [Compound 234] | – | – | <−4.7 | – | <4.0 | 8.7
Cc1cc(C(C)CC#N)ccc1Oc1ccnc(Nc2ccc(C#N)cc2)n1 (stereo not shown) [Compound 235] | – | – | <−5.3 | – | <4.0 | 9.3
Cc1cc(CC(C)C#N)ccc1Oc1ccnc(Nc2ccc(C#N)cc2)n1 (stereo not shown) [Compound 236] | – | – | <−4.8 | – | <4.0 | 8.8
Cc1cc(/C=C/C#N)ccc1Nc1ccnc(Nc2ccc(C#N)cc2)n1 [Compound 237] | – | – | <−4.9 | – | <4.0 | 8.9
Cc1cc(CC#N)cc(Cl)c1Nc1ccnc(Nc2ccc(C#N)cc2)n1 [Compound 238] | – | – | −3.9 | – | 5.6 | 9.5
Cc1cc(/C=C/C#N)cc(-c2ccco2)c1Nc1ccnc(Nc2ccc(C#N)cc2)n1 [Compound 239] | – | – | −3.9 | – | 5 | 8.9
Cc1cc(CN(C)CCC#N)cc(Br)c1Nc1ccnc(Nc2ccc(C#N)cc2)n1 [Compound 241] | – | – | −4.1 | – | 5.3 | 9.4
N#C/C=C/c1ccc(Nc2ccnc(Nc3ccc(C#N)cc3)n2)c(Br)c1 [Compound 244] | – | – | −5.2 | – | 4 | 9.2
COc1cc(/C=C/C#N)ccc1Nc1ccnc(Nc2ccc(C#N)cc2)n1 [Compound 245] | – | – | −4.8 | – | 4 | 8.8
CC(C#N)=Cc1cc(C)c(Nc2ccnc(Nc3ccc(C#N)cc3)n2)c(Br)c1 [Compound 247] | – | – | −3 | – | 6.2 | 9.2
Cc1cc(/C=C/C#N)cc(Br)c1Nc1ccnc(Nc2ccc(C#N)cc2)n1 [Compound 248] | – | – | −3.5 | – | 5.7 | 9.3
COc1cc(C=C(C)C#N)ccc1Nc1ccnc(Nc2ccc(C#N)cc2)n1 [Compound 249] | – | – | −4.5 | – | 4 | 8.5
COc1cc(CCC#N)ccc1Nc1ccnc(Nc2ccc(C#N)cc2)n1 [Compound 251] | – | – | −3.9 | – | 5 | 8.9
